Source: patent US20250049776A1, “AUTOPHAGY INDUCING COMPOUNDS AND USES THEREOF, IN PARTICULAR FOR A SYSTEMIC TREATMENT OF DISEASES AND CONDITIONS” (Samsara Therapeutics Inc., priority 2021, published 2025)
Structures can show the parent of a compound that is named as a salt.

Tested on: dopaminergic Tyrosine hydroxylase (TH)-positive neurons injured with MPTP
Experiment: Cellular model of Parkinson's disease (MPTP/MPP+ injury of primary mesencephalic neurons)
Type: cell-based, Rat
Conditions: concentrations of 500 μM and 1 μM
Source text: This model (run by Neuro-Sys SAS, France) is based on a primary culture of dopaminergic Tyrosine hydroxylase (TH)-positive neurons injured with the dopaminergic neurons-specific toxin (DA-toxin) 1-methyl-4-phenyl-1,2,3,6 tetrahydropyridine (MPTP, a prodrug of MPP*) (Dauer and Przedborski, 2003). Any substances reducing DA-toxin neurotoxicity may be useful as a new therapeutic agent for the treatment or prevention of PD.
Primary culture of mesencephalic neurons: Rat dopaminergic neurons were cultured as described by Visanji et al., 2008 and Callizot et al., 2019. Briefly, pregnant female rat (Wistar) of 15 days of gestation were killed using a deep anesthesia with CO2 chamber and a cervical dislocation. The midbrains obtained from 15-day-old rat embryos (Janvier, France) were dissected under a microscope. The embryonic midbrains will be removed and placed in ice-cold medium of Leibovitz (L15) containing 2% of Penicillin-Streptomycin (PS) and 1% of bovine serum albumin (BSA). The ventral portion of the mesencephalic flexure, a region of the developing brain rich in dopaminergic neurons, was used for the cell preparations.
The midbrains were dissociated by trypsinisation for 20 min at 37° C. (solution at a final concentration of 0.05% trypsin and 0.02% EDTA). The reaction was stopped by the addition of Dulbecco's modified Eagle's medium (DMEM) containing DNAase I grade II (0.5 mg/mL) and 10% of foetal calf serum (FCS). Cells were then mechanically dissociated by 3 passages through a 10 ml pipette. Cells were then centrifuged at 180×g for 10 min at +4° C. on a layer of BSA (3.5%) in L15 medium. The supernatant was discarded and the cell pellets re-suspended in a defined culture medium consisting of Neurobasal supplemented with B27 (2%), L-glutamine (2 mM) and 2% of PS solution and 10 ng/mL of Brain-derived neurotrophic factor (BDNF) and 1 ng/mL of Glial-Derived Neurotrophic Factor (GDNF). Viable cells were counted in a Neubauer cytometer using the trypan blue exclusion test. The cells were seeded at a density of 40,000 cells/well in 96 well-plates (pre-coated with poly-L-lysine) and maintained in a humidified incubator at 37° C. in 5% CO2/95% air atmosphere. Half of the medium was changed every 2 days with fresh medium. The wells of first and last lines and columns […] (to avoid any edge effect) and were be filled with sterile water.
Test compounds and MPTP: • i) Pre-incubation. On day 6 of culture, the test compounds were dissolved in PBS or DMSO and incubated for 1 hour before the MPTP exposure. • ii) Injury. One hour after the application of test compound, MPTP was added to a final concentration of 4 μM, diluted in control medium still in presence of compounds/inhibitors for 48h. Test compounds were tested on one culture in 96-well plate (n=6 culture wells per condition).
Immunostaining: TH and α-Synuclein. 48 Hours after intoxication, the cell culture supernatant was removed, and the cells were fixed by a solution of 4% paraformaldehyde in PBS, pH=7.3 for 20 min at room temperature. The cells were washed twice in PBS, and then permeabilized. Non-specific sites were blocked with a solution of PBS containing 0.1% of saponin and 1% FCS for 15 min at room temperature. The cultures were incubated with: (a) monoclonal anti-Tyrosine Hydroxylase (TH) antibody produced in mouse at dilution of 1/10000 in PBS containing 1% FCS, 0.1% saponin, for 2 hours at room temperature, and (b) polyclonal anti-alpha synuclein (α-synuclein) antibody produced in rabbit at dilution of 1/200 in PBS containing 1% FCS, 0.1% saponin, for 2 h at room temperature.
Automatic computer analysis. For each condition, 20 pictures (representing the whole well area) were automatically taken using ImageXpress® (Molecular Devices) at 10× magnification (20 pictures, for TH and α-synuclein into TH neurons) using the same acquisition parameters. From images, analyses was directly and automatically performed by MetaXpress® (Molecular Devices).

CCCN(C(=O)c1csc(-c2cnn(-c3ccccc3)c2)n1)[C@@H]1CCNC1 [Compound 171, (R)-2-(1-phenyl-1H-pyrazol-4-yl)-N-propyl-N-(pyrrolidin-3-yl)thiazole-4-carboxamide hydrochloride]
decrease in α-syn area per dopaminergic TH positive neuron compared to MPP+ injury alone: > 18% | increase in the length of the neurite network of dopaminergic TH positive neurons compared to the MPP+ injury alone: > 31% | increase in the number of dopaminergic TH positive neurons compared to MPP+ injury alone: > 25%
